In the NIST ThermoML archive (doi:10.1016/j.jct.2006.02.005):
Where “and” joins values, the source holds several entries; their conditions need not be identical. Identical values can stand only once.

Assays:
[1] = Molar enthalpy of transition or fusion
[2] = molar heat capacity at constant pressure; conditions: 101.33 kPa

NC(CO)(CO)CO [2-amino-2-(hydroxymethyl)-1,3-propanediol]
Conditions	Normal melting temperature [°C]	Triple point temperature [K]
Crystal 1	171.42	–
Crystal 2	–	409.2

[1]
Conditions	Molar enthalpy of transition or fusion [kcal/mol]
Crystal 1	0.742
Crystal 2	8

[2]
Conditions	molar heat capacity at constant pressure
193.15 K, Crystal 2	122.47 J/K/mol and 125.13 J/K/mol and 118.14 J/K/mol
198.15 K, Crystal 2	123.8 J/K/mol and 126.58 J/K/mol and 119.34 J/K/mol
203.15 K, Crystal 2	124.41 J/K/mol and 128.03 J/K/mol and 119.97 J/K/mol
208.15 K, Crystal 2	130.34 J/K/mol and 121.62 J/K/mol and 126.22 J/K/mol
213.15 K, Crystal 2	128.53 J/K/mol and 132.76 J/K/mol and 124.17 J/K/mol
218.15 K, Crystal 2	130.83 J/K/mol and 135.3 J/K/mol and 125.62 J/K/mol
223.15 K, Crystal 2	133.13 J/K/mol and 137.12 J/K/mol and 127.31 J/K/mol
228.15 K, Crystal 2	135.31 J/K/mol and 138.33 J/K/mol and 129.5 J/K/mol
233.15 K, Crystal 2	131.07 J/K/mol and 137.49 J/K/mol and 140.87 J/K/mol
238.15 K, Crystal 2	133.61 J/K/mol and 139.67 J/K/mol and 143.78 J/K/mol
243.15 K, Crystal 2	139.07 J/K/mol and 142.09 J/K/mol and 145.84 J/K/mol
248.15 K, Crystal 2	143.18 J/K/mol and 144.27 J/K/mol and 148.75 J/K/mol
253.15 K, Crystal 2	144.76 J/K/mol and 146.7 J/K/mol and 151.05 J/K/mol
258.15 K, Crystal 2	146.82 J/K/mol and 149.24 J/K/mol and 153.23 J/K/mol
263.15 K, Crystal 2	150.82 J/K/mol and 152.03 J/K/mol and 155.65 J/K/mol
268.15 K, Crystal 2	154.81 J/K/mol and 154.69 J/K/mol and 158.07 J/K/mol
273.15 K, Crystal 2	156.87 J/K/mol and 156.99 J/K/mol and 160.74 J/K/mol
278.15 K, Crystal 2	157.96 J/K/mol and 159.66 J/K/mol and 163.65 J/K/mol
283.15 K, Crystal 2	160.99 J/K/mol and 162.69 J/K/mol and 166.8 J/K/mol
288.15 K, Crystal 2	163.78 J/K/mol and 165.84 J/K/mol and 169.46 J/K/mol
293.15 K, Crystal 2	166.32 J/K/mol and 169.11 J/K/mol and 171.4 J/K/mol
298.15 K, Crystal 2	169.83 J/K/mol and 171.89 J/K/mol and 174.79 J/K/mol
303.15 K, Crystal 2	172.14 J/K/mol and 174.44 J/K/mol and 179.03 J/K/mol
308.15 K, Crystal 2	173.95 J/K/mol and 177.34 J/K/mol and 182.3 J/K/mol
313.15 K, Crystal 2	175.89 J/K/mol and 180.01 J/K/mol and 185.33 J/K/mol
318.15 K, Crystal 2	180.37 J/K/mol and 182.55 J/K/mol and 188.36 J/K/mol
323.15 K, Crystal 2	185.82 J/K/mol and 185.1 J/K/mol and 191.63 J/K/mol
328.15 K, Crystal 2	189.46 J/K/mol and 187.4 J/K/mol and 194.41 J/K/mol
333.15 K, Crystal 2	192 J/K/mol and 189.82 J/K/mol and 197.08 J/K/mol
338.15 K, Crystal 2	195.52 J/K/mol and 192.24 J/K/mol and 200.35 J/K/mol
343.15 K, Crystal 2	198.06 J/K/mol and 194.3 J/K/mol and 203.14 J/K/mol
348.15 K, Crystal 2	200.6 J/K/mol and 196.97 J/K/mol and 206.04 J/K/mol
353.15 K, Crystal 2	203.15 J/K/mol and 199.15 J/K/mol and 209.19 J/K/mol
358.15 K, Crystal 2	201.94 J/K/mol and 211.86 J/K/mol and 205.93 J/K/mol
363.15 K, Crystal 2	209.93 J/K/mol and 203.99 J/K/mol and 214.4 J/K/mol
368.15 K, Crystal 2	212.96 J/K/mol and 206.78 J/K/mol and 217.31 J/K/mol
373.15 K, Crystal 2	215.26 J/K/mol and 209.45 J/K/mol and 219.61 J/K/mol
378.15 K, Crystal 2	218.17 J/K/mol and 212.35 J/K/mol and 222.64 J/K/mol
383.15 K, Crystal 2	221.8 J/K/mol and 214.9 J/K/mol and 226.15 J/K/mol
388.15 K, Crystal 2	227.37 J/K/mol and 217.93 J/K/mol and 229.78 J/K/mol
393.15 K, Crystal 2	229.31 J/K/mol and 221.32 J/K/mol and 233.54 J/K/mol
398.15 K, Crystal 2	234.28 J/K/mol and 225.68 J/K/mol and 237.9 J/K/mol
423.15 K, Crystal 1	367.05 J/K/mol and 386.4 J/K/mol and 376.37 J/K/mol
428.15 K, Crystal 1	368.14 J/K/mol and 390.4 J/K/mol and 378.19 J/K/mol
433.15 K, Crystal 1	369.95 J/K/mol and 393.79 J/K/mol and 383.04 J/K/mol
438.15 K, Crystal 1	396.7 J/K/mol and 389.58 J/K/mol and 371.65 J/K/mol
453.15 K, Liquid	395.39 J/K/mol
458.15 K, Liquid	396.6 J/K/mol
463.15 K, Liquid	398.06 J/K/mol
468.15 K, Liquid	400.36 J/K/mol
473.15 K, Liquid	400.72 J/K/mol
